The test system of one series is S. aureus (ATCC 29213). The series is classed as cell-based, Staphylococcus aureus. To be noted: ATCC 29213, 24 h. How it is done:
(§1) Pseudomonas aeruginosa (P. aeruginosa, ATCC 27853) and Staphylococcus aureus (S. aureus, ATCC 29213) were used to evaluate the novel CAMPs’ antimicrobial activity, salt- and protease-resistance, and membrane permeability. Ten multiple-drug resistant P. aeruginosa and ten methicillin-resistant S. pseudintermedius (MRSP) clinical isolates (Table 2) were used to evaluate the antimicrobial efficacy of CAMPs. The clinical isolates were cultured from diagnostic specimens by the microbiology staff at the University of Missouri Veterinary Medical Diagnostic Laboratory as part of standard service. The isolates were donated to the present project with appropriate permission. All bacterial strains were maintained and grown in Luria-Bertani broth or agar (LB, BD Difco™) at 37 °C as described previously.
(§2) Minimum inhibitory concentrations (MICs) were determined primarily based on the guidelines of the Clinical and Laboratory Standards Institute (CLSI). The Muller Hinton (MH) II broth used in MIC assay contained 20–25 mg/L of calcium and 10–12.5 mg/L of magnesium. The procedures were described in previous studies. In brief, two-fold serially diluted CAMPs (2 to 256 μg/ml) were mixed with appropriate bacterial strains at a final concentration of 5 × 10^5 CFU/ml in a 96-well microtiter plate (Nunc™, Thermo Fisher Scientific). Following incubation at 37 °C for 24 h, MIC was recorded. All assays were conducted in triplicate.

A further series deals with mouse red blood cells. The series is classed as cell-based. On the procedure: The hemolytic assay was performed as described previously. Briefly, mouse red blood cells (RBCs, Innovative Research, Novi, MI) were washed three times with phosphate-buffered saline (PBS, pH 7.4), centrifuged at 1000×g for 10 min, and resuspended in PBS to 10% (v/v). The RBCs were treated with CAMPs at various concentrations ranging from 4 to 512 μg/ml (2-fold serial dilutions) at 37 °C for 1 h. PBS and 0.2% Triton X-100 were used as negative and positive controls, respectively. The supernatant was transferred to a 96-well flat-bottomed polystyrene plate (Thermo Fisher Scientific), and the amount of hemoglobin released into the supernatant was determined by measuring the absorbance with a spectrophotometer at 540 nm. Hemolytic activity was expressed as the percentage of hemolysis and calculated using the following equation: hemolysis (%) = (As-A0)/(A100-A0) × 100, where As is the absorbance of the sample, A100 is the absorbance of completely lysed RBCs in 0.2% Triton X-100, and A0 is the absorbance in the complete absence of hemolysis (PBS treatment). The assay was performed in triplicate. The therapeutic index (T.I.) was calculated according to a previously published formula: T.I. = MHC / MICGM [30]. […] The MICGM was the minimum inhibitory concentration of the peptide concentrations against bacterial growth after the geometric mean was calculated. […]

For a further series, the system named is P. aeruginosa. The series is classed as cell-based, Pseudomonas aeruginosa. On the procedure:
as §1
Minimum inhibitory concentrations (MICs) were determined primarily based on the guidelines of the Clinical and Laboratory Standards Institute (CLSI). The Muller Hinton (MH) II broth used in MIC assay contained 20–25 mg/L of calcium and 10–12.5 mg/L of magnesium. The procedures were described in previous studies. In brief, two-fold serially diluted CAMPs (2 to 256 μg/ml) were mixed with appropriate bacterial strains at a final concentration of 5 × 10^5 CFU/ml in a 96-well microtiter plate (Nunc™, Thermo Fisher Scientific). Following incubation at 37 °C for 24 h, MIC was recorded. […]

In series [1] the test system is Gram-positive bacteria (S. aureus, S. pseudintermedius). Kind of series: Average MIC for Gram-positive bacteria. The series is classed as cell-based, Staphylococcus spp. Particulars: average over S. aureus ATCC 29213 and 10 MRSP strains (Gram-positive), ± SD. How it is done:
as §2
The hemolytic assay was performed as described previously. […] The supernatant was transferred to a 96-well flat-bottomed polystyrene plate (Thermo Fisher Scientific), and the amount of hemoglobin released into the supernatant was determined by measuring the absorbance with a spectrophotometer at 540 nm. Hemolytic activity was expressed as the percentage of hemolysis and calculated using the following equation: hemolysis (%) = (As-A0)/(A100-A0) × 100, where As is the absorbance of the sample, A100 is the absorbance of completely lysed RBCs in 0.2% Triton X-100, and A0 is the absorbance in the complete absence of hemolysis (PBS treatment). […] The therapeutic index (T.I.) was calculated according to a previously published formula: T.I. = MHC / MICGM [30]. […]

The term MIC denotes the lowest concentration found to suppress growth. Read a high MIC as a less susceptible organism.

Bridges are numbered along the chain shown (N, C = ends). Where no end group is shown, it is not given here.

Substance Ac-LRRLKPLIRPWLRPLRRWWW-NH2 [CAMP-A] came in with an MIC in the series on S. aureus (ATCC 29213) of 32 µg/mL. In the series with mouse red blood cells, the “concentration exhibiting hemolytic and cytotoxic activities” value is not below 128 µg/mL. In the series with S. aureus (ATCC 29213), Ac-PIHRRIPPRWPRLKRRW-NH2 [CAMP-t2] had an MIC of 64 µg/mL. On to “Ac-RKFLRRRGEVAHFSQKSLGLYCWWW-NH2 [CAMP-t1]”, for which the MIC against S. aureus (ATCC 29213) worked out at 64 µg/mL.

Consider Ac-RRRWRKRRWWW-NH2 [CAMP-B], for which the MIC in the series on S. aureus (ATCC 29213) was determined as 32 µg/mL. As to “SPIHACRYQRGVCIPGPCRWPYYRVGSCGSGLKSCCVRNRWA (disulfide 6-35, 13-28, 18-36 (inferred)) [AvBD-6, reference compound]”, the MIC in the series with P. aeruginosa (24 h) is more than 256 µg/mL. Moreover, the “MICAverage G-” value against P. aeruginosa (average over 11 P. aeruginosa strains (Gram-negative), ± SD) is more than 256 µg/mL. Further, the “MICAverage G+” value in series [1] is not below 256 µg/mL.

The values are drawn from paper PMC5989455, “Beta-defensin derived cationic antimicrobial peptides with potent killing activity against gram negative and gram positive bacteria” (BMC Microbiology, 2018).
